Laboratory results: PubChem BioAssay (NCI)
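Values below derive from 48-hour exposures of cells grown in 96-well plates, with endpoints linearly interpolated between the two concentrations bracketing the appropriate inhibition level. The concentration for 50% growth inhibition is given as GI50. TGI denotes the concentration required for complete inhibition of growth.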

Tests used:
Experiment in all cases: DTP human tumour cell line panel, 48 h
ACHN renal = test system: ACHN renal
SF-295 CNS = test system: SF-295 CNS
A498 renal = test system: A498 renal
OVCAR-3 ovarian = test system: OVCAR-3 ovarian
SF-268 CNS = test system: SF-268 CNS
BT-549 breast = test system: BT-549 breast
NCI-H522 lung = test system: NCI-H522 lung
SN12C renal = test system: SN12C renal
UACC-62 melanoma = test system: UACC-62 melanoma
DU-145 prostate = test system: DU-145 prostate

SMILES | GI50 (ACHN renal) [µM] | TGI (ACHN renal) [µM] | GI50 (SF-295 CNS) [µM] | TGI (SF-295 CNS) [µM] | GI50 (A498 renal) [µM] | TGI (A498 renal) [µM] | GI50 (OVCAR-3 ovarian) [µM] | TGI (OVCAR-3 ovarian) [µM] | GI50 (SF-268 CNS) [µM] | TGI (SF-268 CNS) [µM] | GI50 (BT-549 breast) [µM] | TGI (BT-549 breast) [µM] | GI50 (NCI-H522 lung) [µM] | TGI (NCI-H522 lung) [µM] | GI50 (SN12C renal) [µM] | TGI (SN12C renal) [µM] | GI50 (UACC-62 melanoma) [µM] | TGI (UACC-62 melanoma) [µM] | GI50 (DU-145 prostate) [µM] | TGI (DU-145 prostate) [µM]
Cc1ccccc1S(=O)(=O)N1[C@H](c2ccc(Cl)cc2)C(C(=O)N[C@@H](Cc2ccccc2)C(N)=O)=C[C@@H]1C(C)(C)C | 2.95 | 9.83 | 2.8 | 10 | 7.3 | 14.4 | 6.12 | 14 | 6.56 | 16.4 | 8.63 | 20.9 | 7.92 | 15.6 | 6.08 | 13.3 | 5.76 | 12.8 | 8.26 | 20.4
Nc1c(C(=O)c2cccc(-c3ccc[n+]([O-])c3)c2)cnn1-c1ccc(F)cc1F | > 25 | > 25 | > 25 | > 25 | > 25 | > 25 | > 25 | > 25 | > 25 | > 25 | > 25 | > 25 | > 25 | > 25 | > 25 | > 25 | > 25 | > 25 | > 25 | > 25
CCN(CC)c1ccc(N=C2C=C(C(=O)Nc3ccc(S(C)(=O)=O)cc3)C(=O)c3ccccc32)c(C)c1 | > 100 | > 100 | 3.32 | 39.5 | > 100 | > 100 | 3.78 | > 100 | 2.4 | > 100 | 0.831 | > 100 | 16.7 | > 100 | > 100 | > 100 | 0.734 | > 100 | > 100 | > 100
O=C1c2ccccc2-c2c1c1ccc([N+](=O)[O-])cc1c(=O)n2CCNCCCNCCn1c2c(c3ccc([N+](=O)[O-])cc3c1=O)C(=O)c1ccccc1-2 | 0.338 | 24.5 | 0.0715 | 19.9 | 1.82 | 19.1 | 0.638 | 5.19 | 0.0881 | 12.5 | 2.57 | 50 | 1.14 | 19.5 | 0.144 | 4.04 | 0.372 | 2.03 | 0.96 | 21.1
N#Cc1c2ccccc2c2n1-c1ccccc1OC(c1ccccc1)C2=O (stereo not given) | 3.73 | > 100 | 3.42 | 34.4 | 1.84 | 6.89 | 5.1 | 49.7 | 3.73 | 19.7 | 2.84 | 7.76 | 2.06 | 4.72 | 3.48 | 14.9 | 3.81 | 18 | 6.1 | 26.3
ON(CCc1ccncc1)Cc1ccccc1 | – | > 100 | – | > 100 | – | > 100 | – | > 100 | – | > 100 | – | > 100 | – | > 100 | – | > 100 | – | > 100 | – | > 100
C=C(C)C(=O)OC1CC2(C)OC2CC(OC(C)=O)/C(C)=C/C2OC(=O)C(=C)C21 (stereo not given) | – | 3.34 | – | 30.3 | – | 26.4 | – | 7.96 | – | 15.3 | – | 5.41 | – | 0.851 | – | 9.37 | – | 17.8 | – | 4.7
CN(C)c1ccc(C(=O)c2ccc(N(C)C)c(N)c2)cc1N | 14.8 | > 100 | 2.03 | 33.4 | 1.03 | 18.1 | 1.86 | 8 | 10.2 | > 100 | 8.02 | > 88.2 | 0.346 | 4.61 | 6.08 | > 100 | 2.32 | > 64.5 | 5.32 | 28.1
COc1ccc(Nc2ncccc2/C=C/C(=O)c2cc(OC)c(OC)c(OC)c2)cc1 | 1.55 | 2.96 | 1.85 | 5.59 | 3.19 | 11.7 | 1.64 | 2.99 | 1.77 | 4.08 | 1.58 | 3.08 | 0.36 | 1.64 | 1.56 | 3.44 | 1.56 | 3.3 | 1.59 | 2.93
CN(C)C(=S)NN=C(c1ccccn1)c1ccccn1 | < 0.0108 | 10.7 | 0.0421 | 18.6 | 0.191 | 12.1 | < 0.01 | 30.5 | < 0.0362 | > 43.4 | 0.074 | 15.4 | 0.124 | 19.1 | 0.0971 | 33.4 | 0.077 | 0.739 | 0.232 | > 33.7
CNc1nc(C)c(-c2nc(Nc3cccc(S(N)(=O)=O)c3)ncc2F)s1 | 0.0266 | 11.7 | 0.0406 | 6.79 | < 0.0168 | < 0.0308 | 0.0302 | 14.4 | 0.0287 | 1.44 | 0.0228 | 0.0753 | 0.0449 | 0.137 | 0.0313 | 2.69 | 0.0224 | 0.0741 | 0.0358 | 17.6
O=C(Nc1ccc(Cl)cc1)c1cc2c(cc1O)[nH]c1ccccc12 | 3.11 | 11.1 | 1.67 | 3.87 | 2.56 | 7.29 | 3.72 | 12.2 | 3.92 | 14.7 | 2.29 | 6.1 | 2.88 | 10.6 | 2.93 | 11.3 | 2.49 | 8.89 | 3.81 | 13.2
CC(=N\O)/C(C)=N/O.CC(=N\O)/C(C)=N/O.CC(=N\O)/C(C)=N/O.CC(=N\O)/C(C)=N/O.[Cu].[Cu] | 18.7 | 32.7 | 19.9 | 37.9 | 24.4 | 39.1 | 22.6 | 43.7 | 19.8 | 34.6 | 19 | 33.4 | 18.2 | 34.1 | 18.8 | 35.2 | 17.1 | 30.8 | 56.8 | > 100
NS(=O)(=O)c1ccc(C2C3=C(CCCC3=O)OC3=C2C(=O)c2ccccc2C3=O)cc1 (stereo not given) | 1.24 | 2.53 | 1.57 | 3.31 | 1.28 | 2.57 | 0.244 | 0.724 | 0.386 | 1.66 | 1.12 | 2.35 | 0.174 | 0.563 | 0.319 | 1.03 | 0.24 | 0.567 | 0.74 | 1.99
Nc1nc2c(c3ncccc13)C(c1ccc(Cl)c(Cl)c1)Cc1ncccc1-2 (stereo not given) | 4.55 | 16 | 2.82 | 7.94 | 1.93 | 5.85 | 2.59 | 7.63 | 5.14 | 23.4 | 3.73 | 16.7 | 1.5 | 5.1 | 6.71 | 24.8 | 2.28 | 12.5 | 3.6 | 12.5
O=c1[nH]cnc2c1nnn2C1OC(CO)C(O)C1O (stereo not given) | 1.04 | > 100 | 1.71 | > 65.7 | 5 | > 100 | 0.816 | 4.98 | 6.81 | > 100 | 7.77 | > 100 | 1.48 | 14 | 6.57 | > 100 | 4.65 | 42.8 | 0.548 | 14
